Measurements as given in patent US6191152A, “2-(1,2,4-triazole-1-yl)-1,3,4-thiadiazole derivatives having an effect on the C.N.S. and the heart” (EGIS Gyogyszergyar Rt., priority 1997, dated 2001).

What was measured:
5-HT2A receptor = molecular target: T1, 5-HT2A receptor (Rattus norvegicus, UniProt P14842); test: 5-HT2A receptor binding, rat brain frontal cortex membrane, tritiated ketanserine; details: read-out: Inhibition of receptor binding of the radioactive ligand (Ki), 5-HT2A
T1 construct: rat brain frontal cortex membrane preparation; from tissue; host or cells: rat brain frontal cortex membranes
T1 sequence (P14842 whole entry): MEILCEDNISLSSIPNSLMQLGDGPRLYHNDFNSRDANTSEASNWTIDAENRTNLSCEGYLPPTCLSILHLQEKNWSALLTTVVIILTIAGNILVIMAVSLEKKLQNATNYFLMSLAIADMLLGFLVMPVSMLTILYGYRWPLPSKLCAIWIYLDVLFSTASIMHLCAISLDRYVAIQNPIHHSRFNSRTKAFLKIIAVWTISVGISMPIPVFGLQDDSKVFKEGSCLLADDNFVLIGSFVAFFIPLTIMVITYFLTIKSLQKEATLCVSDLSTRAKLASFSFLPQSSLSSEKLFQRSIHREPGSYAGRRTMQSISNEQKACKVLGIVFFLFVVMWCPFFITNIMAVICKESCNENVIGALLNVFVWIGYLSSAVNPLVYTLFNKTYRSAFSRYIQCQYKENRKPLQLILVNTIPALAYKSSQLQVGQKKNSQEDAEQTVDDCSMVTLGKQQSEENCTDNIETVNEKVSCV
Procedure: (§1) 4) 5-HT2A and 5-HT2C Receptor Binding Studies
(§2) 5-HT2A and 5-HT2C receptor binding was measured according to the methods described by Leysen et al. /Mol. Pharmacol., 21, 301 (1981)/and Pazos et al. /Eur. J. Pharmacol., 106, 539 (1985)/, respectively. 5-HT2A receptor binding was measured in rat brain frontal cortex membrane preparation using tritiated ketanserine /3-/2-(4-fluorobenzoyl)-1-piperidinyl/ethyl-2,4-(1H,3H)-quinazolinedione/ (60-90 Ci/mmole) as ligand. 5-HT2C receptor binding was measured in pig brain choroid plexus membrane-preparation using tritiated mesulergine /N'-/(8)-1,6-dimethylergoline-8-yl/-N,N-dimethylsulfamide (70-85 Ci/mmole) as the ligand. Non-specific binding to 5-HT2A and 5-HT2C receptors were determined in the presence of 10 micromoles of cyproheptadine /4-(5H-dibenzo/a,d/cycloheptene-5-ylidene)-1-methylpiperidine/and 1 micromole of mianserine /1,2,3,4,10,14b-hexahydro-2-methyldibenzo/c,f/pyrazino/1,2-a/azepine/, respectively. The final incubation volumes were 250 and 1000 microlitres. Samples were incubated for 15 and 30 minutes at 37° C. Incubation was stopped by adding 9 ml of ice-cold 50 mr- tris(hydroxymethyl)aminomethane hydrochloride (pH=7.7) to the reaction mixture. The samples were rapidly filtered through whatman GF/B glass fiber filters using reduced pressure. […] Radioactivity of the filters was determined by a scintillation spectrometer.

5-HT2C receptor = molecular target: T2, 5-HT2C receptor (Sus scrofa, UniProt K7GSR7); test: 5-HT2C receptor binding, pig brain choroid plexus membrane, tritiated mesulergine; details: read-out: Inhibition of receptor binding of the radioactive ligand (Ki), 5-HT2C
T2 construct: pig brain choroid plexus membrane-preparation; from tissue; host or cells: pig brain choroid plexus membranes
T2 sequence (K7GSR7 1-457): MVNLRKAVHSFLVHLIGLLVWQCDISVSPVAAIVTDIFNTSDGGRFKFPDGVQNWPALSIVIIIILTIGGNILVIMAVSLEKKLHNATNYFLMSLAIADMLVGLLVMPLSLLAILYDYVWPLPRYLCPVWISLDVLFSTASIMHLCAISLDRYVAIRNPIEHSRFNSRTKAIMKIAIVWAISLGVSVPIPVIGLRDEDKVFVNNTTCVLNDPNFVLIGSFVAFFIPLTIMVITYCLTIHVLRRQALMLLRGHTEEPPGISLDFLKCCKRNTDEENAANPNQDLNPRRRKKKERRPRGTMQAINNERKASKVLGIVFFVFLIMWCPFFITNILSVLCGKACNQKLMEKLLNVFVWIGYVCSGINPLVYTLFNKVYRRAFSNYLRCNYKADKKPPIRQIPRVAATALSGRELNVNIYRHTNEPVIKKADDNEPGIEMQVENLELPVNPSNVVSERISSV
Procedure: as §1, §2

[1] = test system: isolated rat thoracic aorta; test: Vascular relaxing effect in isolated rat thoracic aorta contracted with 40 mM potassium chloride (diltiazem); design: species or system rat (male SPRD); details: 40 mM KCl contracted strips, 37° C., read-out: IC50 (vascular relaxation in isolated rat thoracic aorta)
Procedure: Experiments were performed in thoracic aortas obtained from male SPRD rats weighing 250 to 300 g. Thoracic aortas excised from rats killed by decapitation and ensanguination were cleaned of fat and connective tissue, then were immediately placed in carbogenized TYRODE solution. The composition of the normal TYRODE solution was the following (in mM): NaCl 114.7, KCl 3.7, CaCl2 3.6, MgCl2 0.49, NaHCO3 19.9, NaH2 PO4 0.32, glucose 5.1.
Two mm wide and 20 to 25 mm long strips were cut from the aortas along a helical line at 45° angle. Aortic strips were mounted vertically between two cotton threads in 10 ml organ chambers, the lower threads were attached to the organ chambers and the upper threads were connected to isometric force transducers. The strips were incubated under 1 g resting tension at 37° C. for 120 minutes, then resting vascular tone was recorded. […]
When stable vascular tone developed, increasing doses of the test substance were added to the organ bath. The effects of each test substance were measured at least in 3 tissue preparations obtained from different animals. Decreases in vascular tension caused by the test substances were expressed as percentage changes and IC50 for each tissue preparation was determined by sigmoid (in few casses linear) curve fitting. […]

human beings = details: Ceulemans et al.; cited from earlier work

| IC50 [1] | SMILES | Ki (5-HT2A receptor) | Ki (5-HT2C receptor) | treatment of different forms of human anxiety (human beings) |
| --- | --- | --- | --- | --- |
|  | CN(C)CCCOc1ccccc1-c1nnc(-n2nc(N3CCCC3)nc2N)s1 [Example 44, 2-(5-Amino-3-pyrrolidino-1H-1,2,4-triazole-1-yl)-5-/ 2-(3-dimethylaminopropoxy)phenyl/-1,3,4-thiadiazole] | > 100 nM | 50 nM |  |
|  | COc1ccc(CCN(C)CCCOc2ccccc2-c2nnc(-n3nc(SC)nc3N)s2)cc1OC [Example 98, 2-(5-Amino-3-methylthio-1H-1,2,4-triazole-1-yl)-5-{2-[3-methyl-3-/ 2-(3,4-dimethoxyphenylethyl)amino/propoxy]phenyl}-1,3,4-thiadiazole] | > 1000 nM | 24 nM |  |
| 150 nM | COc1ccc([C@@H]2Sc3ccccc3N(CCN(C)C)C(=O)[C@@H]2OC(C)=O)cc1 [diltiazem, (2S)-cis-3-acetyloxy-5-(2-dimethylamino-ethyl)-2,3-dihydro-2-(4-methoxyphenyl)-1,5-benzothiazepine-4(5H)-one] |  |  |  |
|  | Cc1nc2sccn2c(=O)c1CCN1CCC(=C(c2ccc(F)cc2)c2ccc(F)cc2)CC1 [ritanserin, 6-[2-/4-bis(4-fluorophenyl)-methylene/ -1-piperidinylethyl]-7-methyl-5H-thiazolo/3,2-a/pyrimidine-5-one] |  |  | proved to be effective for the treatment of different forms of human anxiety |
